{"source": "paper PMC8698932", "about": "(2021)", "key": {"[1]": {"system": "GG1 (DNA, G4) GGGCGGGCGCGAGGGAGGGT", "assay": "CD melting, 261 nm", "conditions": "5 mM KCl; 10 mM KH2PO4 pH 7; 2 µM DNA, 8 µM compound"}, "[2]": {"system": "DL40 (DNA, G4) GGTTTTGGCAGGGTTTTGGT", "assay": "CD melting, 291 nm", "conditions": "5 mM KCl; 10 mM KH2PO4 pH 7; 2 µM DNA, 8 µM compound"}, "[3]": {"system": "nmyc01 (DNA, i motif) ACCCCCTGCATCTGCATGCCCCCTCCCACCCCCT", "assay": "CD melting, 287 nm", "conditions": "Na+ (0.2 M CH3COONa); acetate pH 5; 2 µM DNA, 8 µM compound"}, "[4]": {"system": "nmyc01m (DNA, i motif) ACCCCCTGCATCTTTTTGCCCCCTCCCACCCCCT", "assay": "CD melting, 287 nm", "conditions": "Na+ (0.2 M CH3COONa); acetate pH 5; 2 µM DNA, 8 µM compound"}, "[5]": {"system": "22nt (DNA, i motif) CCCTAACCCTAACCCTAACCCT", "assay": "CD melting, 287 nm", "conditions": "Na+ (0.2 M CH3COONa); acetate pH 5; 2 µM DNA, 8 µM compound"}, "[6]": {"system": "nmyc01 (DNA, i motif) ACCCCCTGCATCTGCATGCCCCCTCCCACCCCCT", "assay": "1H NMR titration (imino protons)", "conditions": "Na+ (sodium phosphate); pH 5.0, 25 °C; hairpin Watson-Crick signals disappear at R = 0.25"}, "[7]": {"system": "nmyc01m (DNA, i motif) ACCCCCTGCATCTTTTTGCCCCCTCCCACCCCCT", "assay": "1H NMR titration (imino protons)", "conditions": "Na+ (sodium phosphate); pH 5.0, 25 °C; no change in imino resonances"}, "[8]": {"system": "22nt (DNA, i motif) CCCTAACCCTAACCCTAACCCT", "assay": "1H NMR titration (imino protons)", "conditions": "Na+ (sodium phosphate); pH 5.0, 25 °C; only small insignificant imino changes"}, "[9]": {"system": "GG1 (DNA, G4) GGGCGGGCGCGAGGGAGGGT", "assay": "fluorescence titration (alkaloid quenching)", "conditions": "5 mM KCl; phosphate 10 mM pH 7; overall constant of the 1:5 DNA:ligand model, not per site; non-specific binding possible"}, "[10]": {"system": "DL40 (DNA, G4) GGTTTTGGCAGGGTTTTGGT", "assay": "fluorescence titration (alkaloid quenching)", "conditions": "5 mM KCl; phosphate 10 mM pH 7; overall constant of the 1:4 DNA:ligand model, not per site; non-specific binding possible"}, "[11]": {"system": "nmyc01 (DNA, i motif) ACCCCCTGCATCTGCATGCCCCCTCCCACCCCCT", "assay": "fluorescence titration (alkaloid quenching)", "conditions": "5 mM KCl; acetate 10 mM pH 5; overall constant of the 1:4 DNA:ligand model, not per site; non-specific binding possible"}, "[12]": {"system": "nmyc01m (DNA, i motif) ACCCCCTGCATCTTTTTGCCCCCTCCCACCCCCT", "assay": "fluorescence titration (alkaloid quenching)", "conditions": "5 mM KCl; acetate 10 mM pH 5; overall constant of the 1:5 DNA:ligand model, not per site; non-specific binding possible"}, "[13]": {"system": "22nt (DNA, i motif) CCCTAACCCTAACCCTAACCCT", "assay": "fluorescence titration (alkaloid quenching)", "conditions": "5 mM KCl; acetate 10 mM pH 5; overall constant of the 1:4 DNA:ligand model, not per site; non-specific binding possible"}, "[14]": {"system": "DL40 (DNA, G4) GGTTTTGGCAGGGTTTTGGT", "assay": "1H NMR titration (imino and aromatic protons)", "conditions": "150 mM NaCl; sodium phosphate pH 6.8, 25 °C; new imino signals, single conformation at R ≥ 1.0"}, "[15]": {"system": "ckit21T12T21 (DNA, G4) CGGGCGGGCGCTAGGGAGGGT", "assay": "1H NMR titration (imino and aromatic protons)", "conditions": "20 mM KCl; 5 mM KH2PO4 pH 6.9, 25 °C; stacks over external tetrads"}}}
{"smiles": "COc1ccc2c(c1O)C[N+]1(C)CCc3cc4c(cc3C1C2)OCO4", "note": "(stereo not drawn)", "values": [{"measurement": "ΔTm", "setting": "[1]", "result": 1.7, "unit": "°C"}, {"measurement": "ΔTm", "setting": "[2]", "result": 5.2, "unit": "°C"}, {"measurement": "ΔTm", "setting": "[3]", "result": "−0.3", "unit": "°C"}, {"measurement": "ΔTm", "setting": "[4]", "result": "−0.6", "unit": "°C"}, {"measurement": "ΔTm", "setting": "[5]", "result": 0.7, "unit": "°C"}, {"measurement": "binding", "setting": "[6]", "result": "weak"}, {"measurement": "binding", "setting": "[7]", "result": "no"}, {"measurement": "binding", "setting": "[8]", "result": "no"}, {"measurement": "Log Ka", "setting": "[9]", "result": "22.39 ± 0.03"}, {"measurement": "Log Ka", "setting": "[10]", "result": "18.46 ± 0.05"}, {"measurement": "Log Ka", "setting": "[11]", "result": "18.21 ± 0.17"}, {"measurement": "Log Ka", "setting": "[12]", "result": "22.61 ± 0.08"}, {"measurement": "Log Ka", "setting": "[13]", "result": "17.64 ± 0.12"}, {"measurement": "binding", "setting": "[14]", "result": "yes"}, {"measurement": "binding", "setting": "[15]", "result": "yes"}]}
